Measurements: patent publication US9434734B2, “Substituted pyrazoloquinazolinones and pyrroloquinazolinones as allosteric modulators of group II metabotropic glutamate receptors” (Domain Therapeutics, priority 2012, dated 2016)

Tests used:
[1] = molecular target: T1, human mGluR2 (hmGluR2) transiently over-expressed in HEK-293 cells (Homo sapiens, UniProt Q14416); assay: Human mGluR2 negative allosteric modulator evaluation using Ca++ functional assay (agonist and NAM activity); format: cell-based; conditions: hmGluR2 in HEK-293 cells, EC80 glutamate, Fluo4AM calcium readout; read-out: mGluR2 negative allosteric modulator activity IC50
T1 construct: expressed in transfected cells; host or cells: HEK-293 cells, transient co-transfection by electroporation
Experimental: Human mGluR2 Negative Allosteric Modulator Evaluation Using Ca^++ Functional Assay
Compounds of the present invention were tested successively for their agonist and negative allosteric modulator activities on human mGluR2 (hmGluR2) transiently over-expressed in HEK-293 cells. They exert agonist activity if they are able to activate mGluR2 by themselves, i.e., in absence of the endogenous agonist glutamate; and they exert negative allosteric modulator activity if they decrease the action of the endogenous agonist glutamate.
HEK-293 cells were maintained in Modified Eagle's Medium supplemented with 10% Foetal Calf Serum, 1% Penicillin/Streptomycin and 1% nonessential amino acids at 37° C./5% CO2.
Cells were plated after transfection onto polyornithine coated, clear bottom, black-walled, 96-well plates and cultured for 24 h.
Receptor activity was detected by changes in intracellular calcium measured using the fluorescent Ca^2+ sensitive dye, Fluo4AM (Molecular Probes).
The day of the assay, medium was aspirated and replaced during 3 hours by medium without serum supplemented with 1% Glutamax, 1% Penicillin/Streptomycin and 1% nonessential amino acids. Then, cells were washed with freshly prepared buffer B (HBSS 1× (PAA), Hepes 20 mM, MgSO4-7H2O 1 mM, Na2CO3 3.3 mM, CaCl2-2H2O 1.3 mM, 0.5% BSA, Probenecid 2.5 mM) and loaded at 37° C./5% CO2 for 1.5 hours with buffer B containing 1 μM Fluo4AM, 0.1 mg/mL Pluronic Acid, 7 μg/mL Glutamate Pyruvate Transaminase and 2 mM sodium pyruvate. Afterwards cells were washed twice with buffer B and 50 μL of this buffer were added to each well.
Agonist and negative allosteric modulator activities of compounds were consecutively evaluated on the same cells plate. […] Then, the cells were stimulated by an EC80 glutamate concentration and fluorescence was recorded for additional 60 s. EC80 glutamate concentration is the concentration giving 80% of the maximal glutamate response. Agonist and/or negative allosteric modulator activity(ies) were evaluated in comparison to basal signal or signal evoked by EC80 glutamate alone, respectively.
For potency determination, a dose-response test was performed using 8 concentrations of each compound of the invention. Dose-response curves were fitted using the sigmoidal dose-response (variable slope) analysis in GraphPad Prism program (Graph Pad Inc) and EC50 of agonist/IC50 of negative allosteric modulator activity was calculated. Dose-response experiments were all performed in duplicate, two times independently.

T1 sequence (Q14416 19-872): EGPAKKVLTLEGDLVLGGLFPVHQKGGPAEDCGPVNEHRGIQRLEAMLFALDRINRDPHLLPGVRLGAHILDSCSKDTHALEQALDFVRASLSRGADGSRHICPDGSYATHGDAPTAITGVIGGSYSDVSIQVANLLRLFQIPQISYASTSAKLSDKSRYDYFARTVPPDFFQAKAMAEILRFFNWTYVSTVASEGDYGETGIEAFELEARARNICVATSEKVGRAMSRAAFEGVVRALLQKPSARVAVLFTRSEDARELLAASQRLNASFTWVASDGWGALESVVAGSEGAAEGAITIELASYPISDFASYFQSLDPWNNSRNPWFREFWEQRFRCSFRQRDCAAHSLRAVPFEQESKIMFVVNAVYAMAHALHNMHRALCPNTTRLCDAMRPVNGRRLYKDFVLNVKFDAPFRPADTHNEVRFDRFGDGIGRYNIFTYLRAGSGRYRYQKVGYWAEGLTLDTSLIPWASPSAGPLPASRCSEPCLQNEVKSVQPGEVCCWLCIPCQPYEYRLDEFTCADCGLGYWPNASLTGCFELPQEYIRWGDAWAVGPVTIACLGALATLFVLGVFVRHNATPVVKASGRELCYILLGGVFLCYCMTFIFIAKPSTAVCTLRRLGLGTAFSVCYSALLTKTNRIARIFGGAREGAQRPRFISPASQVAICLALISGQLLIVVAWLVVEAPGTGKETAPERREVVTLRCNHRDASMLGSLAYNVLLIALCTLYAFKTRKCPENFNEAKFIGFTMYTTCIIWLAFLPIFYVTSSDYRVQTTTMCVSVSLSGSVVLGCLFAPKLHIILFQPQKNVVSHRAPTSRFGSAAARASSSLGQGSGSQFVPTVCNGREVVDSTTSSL

| Structure (SMILES) | melting point | IC50 [1] |
| --- | --- | --- |
| Cn1c(=O)c2ccc(-c3ccc(F)nc3)cc2n2nc(-c3ccnc(C(F)(F)F)c3)cc12 [Example 141, 8-(6-Fluoro-pyridin-3-yl)-4-methyl-2-(2-trifluoromethyl-pyridin-4-yl)-4H-pyrazolo[1,5-a]quinazolin-5-one] | > 250 °C | < 1 µM |
| CCc1ncccc1-c1ccc2c(=O)n(C)c3cc(-c4ccnc(C(F)(F)F)c4)nn3c2c1.Cl [Example 137, 8-(2-Ethyl-pyridin-3-yl)-4-methyl-2-(2-trifluoromethyl-pyridin-4-yl)-4H-pyrazolo[1,5-a]quinazolin-5-one] | > 250 °C | < 1 µM |
| Cc1n[nH]c(C)c1-c1ccc2c(=O)n(C)c3cc(-c4ccccc4)nn3c2c1 [Example 15, 8-(3,5-Dimethyl-1H-pyrazol-4-yl)-4-methyl-2-phenyl-4H-pyrazolo[1,5-a]quinazolin-5-one] | > 250 °C | < 1 µM |
| Cc1cc(-c2ccc3c(=O)n(C)c4cc(-c5ccnc(C(F)(F)F)c5)nn4c3c2)ccn1.Cl [Example 138, 4-Methyl-8-(2-methyl-pyridin-4-yl)-2-(2-trifluoromethyl-pyridin-4-yl)-4H-pyrazolo[1,5-a]quinazolin-5-one] | > 250 °C | < 1 µM |
| Cc1n[nH]cc1-c1ccc2c(=O)n(C)c3cc(-c4ccc(F)cc4)nn3c2c1 [Example 81, 2-(4-Fluoro-phenyl)-4-methyl-8-(3-methyl-1H-pyrazol-4-yl)-4H-pyrazolo[1,5-a]quinazolin-5-one] | > 250 °C | < 1 µM |
| CCn1cc(-c2cc3n(C)c(=O)c4ccc(-c5ccc(N)nc5)cc4n3n2)cn1.Cl [Example 131, 8-(6-Amino-pyridin-3-yl)-2-(1-ethyl-1H-pyrazol-4-yl)-4-methyl-4H-pyrazolo[1,5-a]quinazolin-5-one] | 226 to 238 °C | < 1 µM |
| Cl.Nc1ccc(-c2ccc3c(=O)n(CC(F)F)c4cc(C5CCOCC5)nn4c3c2)cn1 [Example 103, 8-(6-Amino-pyridin-3-yl)-4-(2,2-difluoro-ethyl)-2-(tetrahydro-pyran-4-yl)-4H-pyrazolo[1,5-a]quinazolin-5-one] | > 250 °C | < 1 µM |
| Cl.Cn1cc(-c2cc3n(C)c(=O)c4ccc(-c5cccnc5)cc4n3n2)cn1 [Example 126, 4-Methyl-2-(1-methyl-1H-pyrazol-4-yl)-8-pyridin-3-yl-4H-pyrazolo[1,5-a]quinazolin-5-one] | > 250 °C | < 1 µM |
| Cl.Cn1c(=O)c2ccc(-c3ccc(N)nc3)cc2n2nc(C3CCSCC3)cc12 [Example 83, 8-(6-Amino-pyridin-3-yl)-4-methyl-2-(tetrahydro-thiopyran-4-yl)-4H-pyrazolo[1,5-a]quinazolin-5-one] | > 250 °C | < 1 µM |
| CC(C)c1cc2n(C)c(=O)c3ccc(-c4ccc(N)nc4)cc3n2n1.Cl [Example 51, 8-(6-Amino-pyridin-3-yl)-2-isopropyl-4-methyl-4H-pyrazolo[1,5-a]quinazolin-5-one] | 240 to 244 °C | < 1 µM |
| Cc1cc(-c2cc3n(C)c(=O)c4ccc(-c5c[nH]nc5C(F)(F)F)cc4n3n2)cc(C)n1.Cl [Example 147, 2-(2,6-Dimethyl-pyridin-4-yl)-4-methyl-8-(3-trifluoromethyl-1H-pyrazol-4-yl)-4H-pyrazolo[1,5-a]quinazolin-5-one] | > 250 °C | < 1 µM |
| CCn1c(=O)c2ccc(-c3cccc(S(=O)(=O)N(C)C)c3)cc2n2nc(-c3ccccc3)cc12 [Example 39, N,N-Dimethyl-3-(4-Ethyl-5-oxo-2-phenyl-4,5-dihydro-pyrazolo[1,5-a]quinazolin-8-yl)-benzenesulfonamide] | 197 to 198 °C | < 1 µM |
| Cc1cc(-c2ccc3c(=O)n(C)c4cc(C5CCCC5)nn4c3c2)cc(C)n1.Cl [Example 66, 2-Cyclopentyl-8-(2,6-dimethyl-pyridin-4-yl)-4-methyl-4H-pyrazolo[1,5-a]quinazolin-5-one] | > 250 °C | < 1 µM |
| Cl.Nc1ccc(-c2ccc3c(=O)n(CC(F)(F)F)c4cc(C5CCOCC5)nn4c3c2)cn1 [Example 104, 8-(6-Amino-pyridin-3-yl)-2-(tetrahydro-pyran-4-yl)-4-(2,2,2-trifluoro-ethyl)-4H-pyrazolo[1,5-a]quinazolin-5-one] | > 250 °C | < 1 µM |
| CCCn1c(=O)c2ccc(-c3ccc(N)nc3)cc2n2nc(C3CCCC3)cc12.Cl [Example 71, 8-(6-Amino-pyridin-3-yl)-2-cyclopentyl-4-propyl-4H-pyrazolo[1,5-a]quinazolin-5-one] | > 250 °C | < 1 µM |

Other lines, results leading:

| melting point | IC50 [1] | Structure (SMILES) |
| --- | --- | --- |
| > 250 °C | < 1 µM | Cn1c(=O)c2ccc(-c3cn[nH]c3)cc2n2nc(-c3ccccc3)cc12 [Example 6, 4-Methyl-2-phenyl-8-(1H-pyrazol-4-yl)-4H-pyrazolo[1,5-a]quinazolin-5-one] |
| > 250 °C | < 1 µM | Cn1c(=O)c2ccc(-c3ccc4nccn4c3)cc2n2nc(-c3ccccc3)cc12 [Example 8, 8-Imidazo[1,2-a]pyridin-6-yl-4-methyl-2-phenyl-4H-pyrazolo[1,5-a]quinazolin-5-one] |
| 218 to 229 °C | < 1 µM | Cl.Cn1c(=O)c2ccc(-c3ccc(N)nc3)cc2n2nc(-c3ccco3)cc12 [Example 82, 8-(6-Amino-pyridin-3-yl)-2-furan-2-yl-4-methyl-4H-pyrazolo[1,5-a]quinazolin-5-one] |
| > 250 °C | < 1 µM | Cl.Nc1ccc(-c2ccc3c(=O)n(CC(F)F)c4cc(-c5ccccc5)nn4c3c2)cn1 [Example 46, 8-(6-Amino-pyridin-3-yl)-4-(2,2-difluoro-ethyl)-2-phenyl-4H-pyrazolo[1,5-a]quinazolin-5-one] |
| > 250 °C | < 1 µM | Cn1c(=O)c2ccc(-c3ccc(S(N)(=O)=O)cc3)cc2n2nc(-c3ccccc3)cc12 [Example 10, 4-(4-Methyl-5-oxo-2-phenyl-4,5-dihydro-pyrazolo[1,5-a]quinazolin-8-yl)-benzenesulfonamide] |
| > 250 °C | < 1 µM | Cl.Cn1c(=O)c2ccc(-c3ccc(N)nn3)cc2n2nc(-c3ccccc3)cc12 [Example 29, 8-(6-Amino-pyridazin-3-yl)-4-methyl-2-phenyl-4H-pyrazolo[1,5-a]quinazolin-5-one] |
| 207 to 209 °C | < 1 µM | CC(=O)c1cccc(-c2ccc3c(=O)n(C)c4cc(-c5ccccc5)nn4c3c2)c1 [Example 14, 8-(3-Acetyl-phenyl)-4-methyl-2-phenyl-4H-pyrazolo[1,5-a]quinazolin-5-one] |
| 203 to 205 °C | < 1 µM | Cl.Nc1ccc(-c2ccc3c(=O)n(C4CCC4)c4cc(-c5ccccc5)nn4c3c2)cn1 [Example 48, 8-(6-Amino-pyridin-3-yl)-4-cyclobutyl-2-phenyl-4H-pyrazolo[1,5-a]quinazolin-5-one] |
| 214 to 216 °C | < 1 µM | CC(C)n1c(=O)c2ccc(-c3ccc(N)nc3)cc2n2nc(-c3ccccc3)cc12.Cl [Example 47, 8-(6-Amino-pyridin-3-yl)-4-isopropyl-2-phenyl-4H-pyrazolo[1,5-a]quinazolin-5-one] |
| 228 to 231 °C | < 1 µM | Cn1cc(-c2cc3n(C)c(=O)c4ccc(-c5ccccc5)cc4n3n2)cn1 [Example 124, 4-Methyl-2-(1-methyl-1H-pyrazol-4-yl)-8-phenyl-4H-pyrazolo[1,5-a]quinazolin-5-one] |
| > 250 °C | < 1 µM | Cl.Cn1c(=O)c2ccc(-c3ccc(N)nc3)cc2n2nc(Cc3ccccc3)cc12 [Example 79, 8-(6-Amino-pyridin-3-yl)-2-benzyl-4-methyl-4H-pyrazolo[1,5-a]quinazolin-5-one] |
| > 250 °C | < 1 µM | Cn1c(=O)c2ccc(-c3cccc(C#N)c3)cc2n2nc(-c3ccccc3)cc12 [Example 35, 3-(4-Methyl-5-oxo-2-phenyl-4,5-dihydro-pyrazolo[1,5-a]quinazolin-8-yl)-benzonitrile] |
| 194 to 197 °C | < 1 µM | Cl.Cn1c(=O)c2ccc(-c3ccc(N)nc3)cc2n2nc(C3CCCCC3)cc12 [Example 74, 8-(6-Amino-pyridin-3-yl)-2-cyclohexyl-4-methyl-4H-pyrazolo[1,5-a]quinazolin-5-one] |
